# Assay results reported in patent publication US5801180A, “Quinazoline derivatives” (priority 1991, dated 1998).
# Biological target: T1, cGMP-PDE prepared from the swine aeorta (Sus scrofa, UniProt A0A287B475)
# T1 construct: The swine aeorta was sliced; from tissue; host or cells: swine aorta, 100000×g supernatant, DEAE-Toyopearl 650S fraction
# Experiment: Enzyme inhibiting action with the use of cGMP-PDE prepared from the swine aorta
# Type: biochemical
# Conditions: CaM-independent cGMP-PDE, 1 mM EGTA, 1 μM cGMP substrate, DMSO 4% or below
# Protocol: Enzyme inhibiting action with the use of cGMP-PDE prepared from the swine aeorta
# The enzymatic activity of the cGMP-PDE prepared from the swine aeorta was determined according to the method of Thompson et al. ^(1). The enzymatic activity thereof was determined in the presence of 1 mM EGTA by the use of 1 μM cGMP as a substrate. The compound of the present invention was dissolved in DMSO, added to the reaction liquid and examined for the inhibitory activity. The final concentration of DMSO in the reaction liquid was adjusted to 4% or below. (1) Thompson, W. J. and Strada, S. J., Cyclic Nucleotide Phosphodiesterase (PDE), in Methods of Enzymatic Analysis, vol 4, p.127-234, 1984.
# The swine aeorta was sliced, followed by the addition of 10 times by volume as much Buffer A (20 mM Tris/HCl, 2 mM Mg acetate, 1 mM Dithiothreitol, 5 mM EDTA, 1400 TIU/liter aprotinin, 10 mg/liter leupeptin, 1 mM benzamidine, 0.2 mM PMSF, pH 7.5). The obtained mixture was homogenized and the homogenate was centrifuged at 100000×g for one hour. The obtained supernatant was supplied a DEAE-Toyopearl 650S (Tosoh, Tokyo, Japan) column. After the column was washed with Buffer B (50 mM Tris/HCl, 0.1 mM EGTA, 2 mM Mg acetate, 1 mM Dithiothreitol, 0.2 mM PMSF, pH 7.5), gradient elution with 0.05 to 0.4M NaCl was conducted. Thus, CaM-independent cGMP-PDE fractions were obtained.
row,IC50 [nM],Compound
1,49,"N#Cc1ccc2nc(N)nc(NCc3ccc4c(c3)OCO4)c2c1 [Example 201, 2-Amino-4-(3,4-methylenedioxybenzyl)amino-6-cyanoquinazoline]"
2,9,"CCOC(=O)CCCNc1nc(NCc2ccc3c(c2)OCO3)c2cc(Cl)ccc2n1 [Example 214, 2-(3-Ethoxycarbonylpropyl)amino-4-(3,4-methylenedioxybenzyl)amino-6-chloroquinazoline]"
3,2,"CNC(=O)Nc1nc(NCc2ccc3c(c2)OCO3)c2cc(Cl)ccc2n1 [Example 202, 2-(Methylcarbamoyl)amino-4-(3,4-methylenedioxybenzyl)amino-6-chloroquinazoline]"
4,66,NC(=O)CNc1nc(NCc2ccc3c(c2)OCO3)c2cc(Cl)ccc2n1 [Example 197]
5,62,"COc1ccc2nc(Cl)nc(NCc3ccc4c(c3)OCO4)c2c1 [Example 98, 2-Chloro-4-(3,4-methylenedioxybenzyl)amino-6-methoxyquinazoline]"
6,9,"CSc1nc(NCc2ccc3c(c2)OCO3)c2cc(Cl)ccc2n1 [Example 180, 2-Methylthio-4-(3,4-methylenedioxybenzyl)amino-6-chloroquinazoline]"
7,20,"Clc1ccc2nc(-n3ccnc3)nc(NCc3ccc4c(c3)OCO4)c2c1 [Example 192, 2-(1-Imidazolyl)-4-(3,4-methylenedioxybenzyl)amino-6-chloroquinazoline]"
8,8,"O=C(O)CCCCCNc1nc(NCc2ccc3c(c2)OCO3)c2cc(Cl)ccc2n1 [Example 239, 2-(5-Carboxypentyl)amino-4-(3,4-methylenendioxybenzyl)amino-6-chloroquinazoline]"
9,3,"CCOC(=O)/C=C/c1nc(NCc2ccc3c(c2)OCO3)c2cc(Cl)ccc2n1 [Example 114, (E)-2-(2-Ethoxycarbonylvinyl)-4-(3,4-methylenedioxybenzyl)amino-6-chloroquinazoline]"
10,11,OCCOc1nc(NCc2ccc3c(c2)OCO3)c2cc(Cl)ccc2n1 [Example 168]
11,4,"CCCCNC(=O)Nc1nc(NCc2ccc3c(c2)OCO3)c2cc(Cl)ccc2n1 [Example 204, 2-(n-Butylcarbamoyl)amino-4-(3,4-methylenedioxybenzyl)amino-6-chloroquinazoline]"
12,160,"COc1ccc2nc(OC)nc(NCc3ccc4c(c3)OCO4)c2c1 [Example 89, 2,6-Dimethoxy-4-(3,4-methylenedioxybenzyl)aminoquinazoline]"
13,19,"OCCN(CCO)c1nc(NCc2ccc3c(c2)OCO3)c2cc(Cl)ccc2n1 [Example 191, 2-Bis(2-hydroxyethyl)amino-4-(3,4-methylenedioxybenzyl)amino-6-chloroquinazoline]"

# The next lines start with the molecule.
row,Compound,IC50 [nM]
1,"COc1cc2c(NCc3ccc4c(c3)OCO4)nc(NCCO)nc2c(OC)c1OC [Example 187, 2-(2-Hydroxyethyl)amino-4-(3,4-methylenedioxybenzyl)amino-6,7,8-trimethoxyquinazoline]",120
2,"CSc1ccc2ncnc(NCc3ccc(Cl)c(Cl)c3)c2c1 [Example 50, 4-(3,4-Dichlorobenzyl)amino-6-methylthioquinazoline]",32
3,"COc1nc(NCc2ccc3c(c2)OCO3)c2cc(OC)c(OC)c(OC)c2n1 [Example 167, 2,7,8-Tetramethoxy-4-(3,4-methylenedioxybenzyl)aminoquinazoline]",560
4,"COc1ccc(CNc2ncnc3c(OC)c(OC)c(OC)cc23)cc1 [Example 7, 4-(4-Methoxybenzyl)amino-6,7,8-trimethoxyquinazoline]",1000
5,"N#Cc1ccc2nc(Cl)nc(NCc3ccc4nc[nH]c4c3)c2c1 [Example 104, 2-Chloro-4-(benzimidazol-5-yl)methylamino-6-cyanoquinazoline]",10
6,"CCOC(=O)CN(Cc1ccc2c(c1)OCO2)c1ncnc2c(OC)c(OC)c(OC)cc12 [Example 41, 4-[N-(Ethoxycarbonylmethyl)-(3,4-methylenedioxybenzyl)amino]-6,7,8-trimethoxyquinazoline]",350
7,"CCOC(=O)CCCCCNc1nc(NCc2ccc3c(c2)OCO3)c2cc(Cl)ccc2n1 [Example 216, 2-(5-Ethoxycarbonylpentyl)amino-4-(3,4-methylenedioxybenzyl)amino-6-chloroquinazoline]",17
8,"COc1cc2c(NCc3ccc4c(c3)OCO4)nc(C)nc2c(OC)c1OC [Example 81, 2-Methyl-4-(3,4-methylenedioxybenzyl)amino-6,7,8-trimethoxyquinazoline]",440
9,"COC1Cc2cc(CNc3ncnc4ccc(Cl)cc34)ccc2O1 (centres unmarked) [Example 61, 4-(2-Methoxy-2,3-dihydrobenzofuran-5-yl)methylamino6-chloroquinazoline]",420
10,"COc1ccc2ncnc(NCc3ccc4c(c3)OCO4)c2c1 [Example 46, 4-(3,4-Methylenedioxybenzyl)amino-6-methoxyquinazoline]",240
11,"COc1ccc(CNc2ncnc3ccc(SC)cc23)cc1F [Example 51, 4-(3-Fluoro-4-methoxybenzyl)amino-6-methylthioquinazoline]",69
12,O=C(O)C1CCN(c2nc(NCc3ccc4c(c3)OCO4)c3cccnc3n2)CC1 [Example 262],880
13,"N#Cc1ccc2nc(N3CCC(C(=O)O)CC3)nc(NCc3ccc4c(c3)OCO4)c2c1 [Example 227, 2-(4-Carboxypiperidino)-4-(3,4-methylenedioxybenzyl)amino-6-cyanoquinazoline]",2.6
14,"COc1ccc(CNc2cc(N3CCC(C(=O)O)CC3)nc3ccc(C#N)cc23)cc1Cl [Example 260, 2-(4-Carboxypiperidino)-4-(3-chloro-4-methoxybenzyl)amino-6-cyanoquinoline]",0.16
15,OCc1ccc2ncnc(NCc3ccc4c(c3)OCO4)c2c1 [Example 136],930
16,"COc1cc2c(NC(C)c3ccc4c(c3)OCO4)ncnc2c(OC)c1OC (stereo not drawn) [Example 38, 4-(α-Methyl-3,4-methylenedioxybenzyl)amino-6,7,8-trimethoxyquinazolin]",420
17,"N#Cc1ccc2ncnc(NCc3ccc4nc[nH]c4c3)c2c1 [Example 67, 4-(Benzimidazol-5-yl)methylamino-6-cyanoquinazoline]",140
18,"COc1cc2c(NCc3ccc4c(c3)OCO4)nc(N3CCC(C(=O)O)CC3)nc2c(OC)c1OC [Example 231, 2-(4-Carboxypiperidino)-4-(3,4-methylenedioxybenzyl)amino-6,7,8-trimethoxyquinazoline]",410
19,"Cc1ccc2ncnc(NCc3ccc4c(c3)OCO4)c2c1 [Example 69, 4-(3,4-Methylenedioxybenzyl)amino-6-methylquinazoline]",190
20,"Clc1ccc2nc(-n3ccnc3)n(Cc3ccc4c(c3)OCO4)c2c1 [Example 278, 6-Chloro-2-(imidazol-1-yl)-1-(3,4-methylenedioxybenzyl)benzimidazole]",250
21,"COc1ccc(CNc2nc(/C=C(\C)C(=O)O)nc3ccc(Cl)cc23)cc1Cl [Example 125, (E)-2-(2-Carboxy-1-propenyl)-4-(3-chloro-4-methoxybenzyl)amino-6-chloroquinazoline]",9
22,"COc1ccc(CNc2ncnc3c(OC)c(OC)c(OC)cc23)cc1F [Example 22, 4-(3-Fluoro-4-methoxybenzyl)amino-6,7,8-trimethoxyquinazoline]",360
